Columns and labels:
[1] = cited from earlier work
[2] = IMPAACT P1066: safety in HIV-1 infected pediatric patients; assay type: in vivo, human
From the text: Raltegravir has been studied in 126 antiretroviral treatment-experienced HIV-1 infected pediatric patients 2 through 18 years of age, in combination with other antiretroviral agents in IMPAACT P1066. Of the 126 patients, 96 received only the final recommended dose through at least 24 weeks.

[3] = laboratory abnormality, pediatric patients

SMILES	solubility in acetonitrile ([1]; acetonitrile)	solubility in ethanol ([1]; ethanol)	solubility in isopropanol ([1]; isopropanol)	solubility in methanol ([1]; methanol)	solubility in water ([1]; water)	ALT increased, Grade 3 [2, 3]	AST increased, Grade 3 [2, 3]	AST increased, Grade 4 [2, 3]	GGT increased, Grade 3 [2, 3]	bilirubin increased, Grade 3 [2, 3]	creatinine increased, Grade 3 [2, 3]	glucose abnormal, Grade 3 [2, 3]	glucose decreased, Grade 3 [2, 3]	magnesium decreased, Grade 3 [2, 3]	neutrophil count decreased, Grade 4 [2, 3]	neutrophil count decreased, Grade 3 ([2]; laboratory abnormality, pediatric patients 2 through 18 years)	Grade 3 or higher adverse reactions (psychomotor hyperactivity, abnormal behavior, insomnia) ([2]; pediatric patients)	frequency, type and severity of drug related adverse reactions ([2]; pediatric patients)	serious Grade 2 possibly drug related allergic rash ([2]; pediatric patients)
Cc1nnc(C(=O)NC(C)(C)c2nc(C(=O)NCc3ccc(F)cc3)c([O-])c(=O)n2C)o1.[K+] [Raltegravir potassium, N-[(4-Fluorophenyl)methyl]-1,6-dihydro-5-hydroxy-1-methyl-2-[1-methyl-1-[[(5-methyl-1,3,4-oxadiazol-2-yl)carbonyl]amino]ethyl]-6-oxo-4-pyrimidinecarboxamide monopotassium salt]	very slightly soluble	very slightly soluble	insoluble	slightly soluble	soluble														
Cc1nnc(C(=O)NC(C)(C)c2nc(C(=O)NCc3ccc(F)cc3)c(O)c(=O)n2C)o1 [Raltegravir]						1.1%	1.1%	1.1%	1.1%	1.1%	1.1%	1.1%	1.1%	1.1%	1.1%	7.4%	one patient	comparable to those observed in adults	one

From patent US20140242178A1, “TASTE-MASKED FORMULATIONS OF RALTEGRAVIR” (priority 2011, published 2014)
